# In PubChem BioAssay (NCI):
#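 Method: 48-hour compound exposure of cells in 96-well plates, five concentrations, linear interpolation of endpoints. Here, GI50 denotes the concentration required for 50% inhibition of growth. TGI: concentration producing complete growth inhibition.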
# Assays:
# Assay in all cases: NCI-60 cell line screen, 48 h
# NCI-H460 lung = tested on: NCI-H460 lung
# SW-620 colon = tested on: SW-620 colon
# DU-145 prostate = tested on: DU-145 prostate
# LOX IMVI melanoma = tested on: LOX IMVI melanoma
# HT29 colon = tested on: HT29 colon
# OVCAR-5 ovarian = tested on: OVCAR-5 ovarian
# T-47D breast = tested on: T-47D breast
# SF-268 CNS = tested on: SF-268 CNS
# OVCAR-8 ovarian = tested on: OVCAR-8 ovarian
# HS 578T breast = tested on: HS 578T breast
# A498 renal = tested on: A498 renal
# HOP-62 NSCLC = tested on: HOP-62 NSCLC
# SNB-19 CNS = tested on: SNB-19 CNS
# NCI-H23 lung = tested on: NCI-H23 lung
# NCI-H522 lung = tested on: NCI-H522 lung
# HCT-15 colon = tested on: HCT-15 colon
# CAKI-1 renal = tested on: CAKI-1 renal
# MDA-MB-231 breast = tested on: MDA-MB-231 breast
# MDA-MB-435 = tested on: MDA-MB-435
# CCRF-CEM leukemia = tested on: CCRF-CEM leukemia
# MOLT-4 leukemia = tested on: MOLT-4 leukemia
# HL-60(TB) leukemia = tested on: HL-60(TB) leukemia
# MCF7 breast = tested on: MCF7 breast
# UO-31 renal = tested on: UO-31 renal
# SF-295 CNS = tested on: SF-295 CNS
# K-562 leukemia = tested on: K-562 leukemia
# M14 melanoma = tested on: M14 melanoma
# EKVX NSCLC = tested on: EKVX NSCLC
# PC-3 prostate = tested on: PC-3 prostate
# HCC-2998 colon = tested on: HCC-2998 colon
# A549 NSCLC = tested on: A549 NSCLC
# SK-MEL-2 melanoma = tested on: SK-MEL-2 melanoma
# TK-10 renal = tested on: TK-10 renal
# UACC-62 melanoma = tested on: UACC-62 melanoma
# UACC-257 melanoma = tested on: UACC-257 melanoma
# IGROV1 ovarian = tested on: IGROV1 ovarian
# SNB-75 CNS = tested on: SNB-75 CNS
# NCI-H226 lung = tested on: NCI-H226 lung
# RXF 393 renal = tested on: RXF 393 renal
# SF-539 CNS = tested on: SF-539 CNS
# HOP-92 NSCLC = tested on: HOP-92 NSCLC
# 786-0 renal = tested on: 786-0 renal
# ACHN renal = tested on: ACHN renal
# BT-549 breast = tested on: BT-549 breast
# NCI/ADR-RES ovarian = tested on: NCI/ADR-RES ovarian
# OVCAR-4 ovarian = tested on: OVCAR-4 ovarian
# SK-OV-3 ovarian = tested on: SK-OV-3 ovarian
# KM12 colon = tested on: KM12 colon
# SN12C renal = tested on: SN12C renal
# OVCAR-3 ovarian = tested on: OVCAR-3 ovarian
# MALME-3M melanoma = tested on: MALME-3M melanoma
# RPMI-8226 leukemia = tested on: RPMI-8226 leukemia
# SK-MEL-5 melanoma = tested on: SK-MEL-5 melanoma
# SK-MEL-28 melanoma = tested on: SK-MEL-28 melanoma
# SR leukemia = tested on: SR leukemia
# COLO 205 colon = tested on: COLO 205 colon
# U251 CNS = tested on: U251 CNS
# HCT-116 colon = tested on: HCT-116 colon
smiles,measurement,setting,value
CCCN1CCC(c2ccc(Nc3nc(Nc4cc(F)ccc4C(N)=O)c4cc[nH]c4n3)c(OC)c2)CC1,GI50,NCI-H460 lung,0.147 µM
same,TGI,NCI-H460 lung,1.43 µM
same,GI50,SW-620 colon,0.099 µM
same,TGI,SW-620 colon,3.04 µM
same,GI50,DU-145 prostate,1.02 µM
same,TGI,DU-145 prostate,4.92 µM
same,GI50,LOX IMVI melanoma,0.365 µM
same,TGI,LOX IMVI melanoma,5.84 µM
same,GI50,HT29 colon,0.0124 µM
same,TGI,HT29 colon,1.06 µM
same,GI50,OVCAR-5 ovarian,2.78 µM
same,TGI,OVCAR-5 ovarian,9.48 µM
same,GI50,T-47D breast,4.14 µM
same,TGI,T-47D breast,9.17 µM
same,GI50,SF-268 CNS,3.42 µM
same,TGI,SF-268 CNS,7.8 µM
same,GI50,OVCAR-8 ovarian,2.23 µM
same,TGI,OVCAR-8 ovarian,7.79 µM
same,GI50,HS 578T breast,3.84 µM
same,TGI,HS 578T breast,12.3 µM
same,GI50,A498 renal,1.17 µM
same,TGI,A498 renal,5.07 µM
same,GI50,HOP-62 NSCLC,2.71 µM
same,TGI,HOP-62 NSCLC,5.84 µM
same,GI50,SNB-19 CNS,4.15 µM
same,TGI,SNB-19 CNS,9.73 µM
same,GI50,NCI-H23 lung,2.22 µM
same,TGI,NCI-H23 lung,6.5 µM
same,GI50,NCI-H522 lung,3.42 µM
same,TGI,NCI-H522 lung,6.69 µM
same,GI50,HCT-15 colon,0.54 µM
same,TGI,HCT-15 colon,15.1 µM
same,GI50,CAKI-1 renal,3.16 µM
same,TGI,CAKI-1 renal,9.56 µM
same,GI50,MDA-MB-231 breast,4.04 µM
same,TGI,MDA-MB-231 breast,8.82 µM
same,GI50,MDA-MB-435,0.852 µM
same,TGI,MDA-MB-435,5.86 µM
same,GI50,CCRF-CEM leukemia,1.16 µM
same,TGI,CCRF-CEM leukemia,20.3 µM
same,GI50,MOLT-4 leukemia,4.4 µM
same,TGI,MOLT-4 leukemia,12.3 µM
same,GI50,HL-60(TB) leukemia,0.0565 µM
same,TGI,HL-60(TB) leukemia,5.81 µM
same,GI50,MCF7 breast,0.0185 µM
same,TGI,MCF7 breast,4.23 µM
same,GI50,UO-31 renal,2.14 µM
same,TGI,UO-31 renal,6.54 µM
same,GI50,SF-295 CNS,3.86 µM
same,TGI,SF-295 CNS,8.37 µM
same,GI50,K-562 leukemia,0.681 µM
same,TGI,K-562 leukemia,2.8 µM
same,GI50,M14 melanoma,1.58 µM
same,TGI,M14 melanoma,5.48 µM
same,GI50,EKVX NSCLC,0.725 µM
same,TGI,EKVX NSCLC,8.18 µM
same,GI50,PC-3 prostate,2.69 µM
same,TGI,PC-3 prostate,9.53 µM
same,GI50,HCC-2998 colon,2.53 µM
same,TGI,HCC-2998 colon,5.5 µM
same,GI50,A549 NSCLC,0.154 µM
same,TGI,A549 NSCLC,4.68 µM
same,GI50,SK-MEL-2 melanoma,1.86 µM
same,TGI,SK-MEL-2 melanoma,5.78 µM
same,GI50,TK-10 renal,1.07 µM
same,TGI,TK-10 renal,6.33 µM
same,GI50,UACC-62 melanoma,3.58 µM
same,TGI,UACC-62 melanoma,7.44 µM
same,GI50,UACC-257 melanoma,0.572 µM
same,TGI,UACC-257 melanoma,5.2 µM
same,GI50,IGROV1 ovarian,1.87 µM
same,TGI,IGROV1 ovarian,7.44 µM
same,GI50,SNB-75 CNS,4 µM
same,TGI,SNB-75 CNS,7.55 µM
same,GI50,NCI-H226 lung,3.83 µM
same,TGI,NCI-H226 lung,8.91 µM
same,GI50,RXF 393 renal,2.89 µM
same,TGI,RXF 393 renal,6.31 µM
same,GI50,SF-539 CNS,2.95 µM
same,TGI,SF-539 CNS,6.76 µM
same,GI50,HOP-92 NSCLC,0.00586 µM
same,TGI,HOP-92 NSCLC,0.126 µM
same,GI50,786-0 renal,3.07 µM
same,TGI,786-0 renal,7.52 µM
same,GI50,ACHN renal,3.13 µM
same,TGI,ACHN renal,7.03 µM
same,GI50,BT-549 breast,4.16 µM
same,TGI,BT-549 breast,8.19 µM
same,GI50,NCI/ADR-RES ovarian,3.2 µM
same,TGI,NCI/ADR-RES ovarian,8.37 µM
same,GI50,OVCAR-4 ovarian,4.1 µM
same,TGI,OVCAR-4 ovarian,13.1 µM
same,GI50,SK-OV-3 ovarian,3.03 µM
same,TGI,SK-OV-3 ovarian,6.93 µM
same,GI50,KM12 colon,2.88 µM
same,TGI,KM12 colon,6.12 µM
same,GI50,SN12C renal,3.62 µM
same,TGI,SN12C renal,8.55 µM
same,GI50,OVCAR-3 ovarian,3.66 µM
same,TGI,OVCAR-3 ovarian,7.25 µM
same,GI50,MALME-3M melanoma,3.13 µM
same,TGI,MALME-3M melanoma,7.54 µM
same,GI50,RPMI-8226 leukemia,3.68 µM
same,TGI,RPMI-8226 leukemia,12.1 µM
same,GI50,SK-MEL-5 melanoma,3.41 µM
same,TGI,SK-MEL-5 melanoma,6.63 µM
same,GI50,SK-MEL-28 melanoma,4.19 µM
same,TGI,SK-MEL-28 melanoma,8.1 µM
same,GI50,SR leukemia,0.0131 µM
same,TGI,SR leukemia,4.54 µM
same,GI50,COLO 205 colon,0.0183 µM
same,TGI,COLO 205 colon,1.78 µM
same,GI50,U251 CNS,0.509 µM
same,TGI,U251 CNS,1.97 µM
same,GI50,HCT-116 colon,0.178 µM
same,TGI,HCT-116 colon,3.61 µM
